Laboratory results from patent US12474347B2, “Determination of protein information by recoding amino acid polymers into DNA polymers” (ABRUS BIO, INC., priority 2022, dated 2025).

Assay: Stability of oligonucleotides in anhydrous TFA simulating Edman peptide cleavage conditions (HPLC)
Assay type: physicochemical
Settings: 1 hr in anhydrous TFA (DMSO/TFA, 45 deg C), FIG. 40
Method: A deprotected 15mer DNA oligonucleotide (CCTGTTGTCAATGAG, Sys #003, LO1) (SEQ ID NO: 126) was obtained from Integrated DNA Technologies. Cleavage, deprotection, and desalting were performed by IDT using their standard process. It was resuspended in Mol Bio grade H2O at 160 μM and a 40 μL aliquot was dried (Eppindorf, Vacufuge+, 45° C. for ˜2 hrs) prior to subjecting to Edman cleavage chemistry. The deprotected oligonucleotide material used for the baseline measurement was resuspended as above, but not dried.
A protected DNA oligonucleotide (5Phos/ATGAGTG/iFormInd/AGGGAAATAGCTTCTGGT CGAACTAGTTGTTCGTCAA/idSp/TTTCTTT, Sys #001, SOCAB) (SEQ ID NO: 125) was liberated from CPG support using EndoIV (NEB, M0304) and desalted (Zymo) to provide five 60 μL aliquots at 70 μM of/5Phos/ATGAGTG/iFormInd/[…] (SEQ ID NO: 75), which were dried as described above. The protected oligonucleotide material used for the baseline measurement was desalted as above, but not dried.
In anhydrous environment 40 μL of DMSO was added to each dried aliquot. Following disolution 40 μL TFA was added to each. Solutions were incubated at 45 deg C. for 0 mins, 30 mins, 60 mins, 4 hrs, and overnight. Samples were neutralized by addition of 228 μL of 4.1M imidazole solution at the conclusion of their incubation period. HPLC chromatograms were collected for each sample.

Substance: protected oligos: protected DNA oligonucleotide liberated from CPG support, /5Phos/ATGAGTG/iFormInd/AGGGAAATAGCTTCTGGTCGAACTAGTTGTTCGTCAA (SEQ ID NO: 75) (DNA ATGAGTGNAGGGAAATAGCTTCTGGTCGAACTAGTTGTTCGTCAA; 5' phosphate, internal formylindole, protecting groups; modified_base 1 OTHER; 5' phosphorylated nucleotide; modified_base 8 OTHER; Formylindole modified nucleotide)
- HPLC peak after exposure to anhydrous TFA: largely unchanged
